We go through two molecules from patent US20240269306A1, “B7H4-TARGETED ANTIBODY-DRUG CONJUGATES AND METHODS OF USE THEREOF” (Mersana Therapeutics, Inc., priority 2021, published 2024).

Experiment [1] relates to STING pathway in THP1-Dual cells co-cultured with MX-1 cancer cells. Kind of experiment: STING activation, cancer cell/THP1-IRF3-Luciferase reporter cell co-culture assay (Example 36). Conditions: 24 hours, concentrations based on payload, read-out: THP1-Dual cells/MX-1 co-cultures EC50.
Protocol: The induction of the STING pathway in immune cells by B7-H4-targeted STING agonist conjugates was evaluated by a cancer cell/THP1-IRF3-Luciferase reporter cell co-culture assay. MX-1 cells were seeded in 96-well CellBind surface tissue culture plates (17,000 cells/well) and allowed to attach for 4 hours in RPMI-1640 medium with 10% FBS and 1% penicillin/streptomycin. […] THP1-Dual™ Cells (InvivoGen) (50,000 cells) were then added to each well and the incubation continued for 24 hours at 37° C. in a humidified atmosphere of 5% CO2. Cell culture supernatants (20 μL) from each incubated sample was added to resuspended QUANTI-Luc (InvivoGen) (50 μL) and the luminescent signal was measured immediately using a SpectraMax M5 plate reader (Molecular Devices). The EC50 values were determined from the dose response curve.
Experiment [2] has as its system MX-1 cells. Kind of experiment: Cell surface binding of STING agonist conjugates by FACS, MX-1 cells (Example 35). Also on record: species or system human. Conditions: Table 14. (In general: Flow cytometry measures light scatter and fluorescence of single cells or particles in a stream.)
Protocol: (§2) MX-1 cells were grown in DMEM:F12K (Life Technologies) with 10% FBS (Life Technologies) and 1% penicillin/streptomycin (Life Technologies). […] For staining, cells were detached by treatment with Accutase cell detachment solution (Innovative Cell Technologies). The detached cells were triturated in media, and plated in 96 well U-bottom plates, at a density of 50,000 cells in medium (75 μL). […] The cells were washed with ice cold PBS (3×), pelleted at 1,000×RCF between each wash step, and resuspended in RPMI-1640 with 2% goat serum (100 μL) and a secondary fluorescently labeled antibody, Alexa Fluor® 647-labelled goat anti-human IgG (5 μg/mL, Life Technologies) for 1 hour on ice. The cells were washed with ice cold PBS (3×) and resuspended in ice cold PBS with 1% paraformaldehyde (100 μL). The fluorescence per cell was determined by analyzing 5,000 cells for each treatment on the flow cytometer. The median fluorescence value for each treatment was plotted, and EC50 values were calculated with Graphpad Prism software by four-parameter curve fitting.
Experiment [3] concerns MX-1 cells. Kind of experiment: Cell surface binding by FACS, MX-1 cells (Example 32). Also on record: species or system human. Conditions: mean of two replicate experiments.
Protocol: as §2
(§3) HEK-293-B7-H4 cells were grown in EMEM (ATCC), 10% FBS, 1% penicillin/streptomycin, and 3 μg/ml puromycin (Life Technologies) and untransfected HEK-293 cells were grown in EMEM, 10% FBS, 1% penicillin/streptomycin. […] Results are mean values for two replicate experiments for each test article.
Experiment [4] deals with HEK-293-B7-H4 cells cocultured with CTV-labeled CD3+ T cells. Kind of experiment: T-cell suppression coculture assay with HEK-293-B7-H4 cells (Example 27). Format: cell-based, human. Conditions: HEK-293-B7-H4 coculture; antibody 50 nM; 4 day; mean ± SD; two lines of values. The procedure:
(§1) Next day, the media was removed and replaced with T cell media (Iscove's Modified Dulbecco's Medium with 10% FBS and 5% penicillin/streptomycin). […] Frozen human PBMCs (2.5×10^7 cells) were thawed and enriched for CD3+ T cells using Easy Step™ human T cell isolation kit (StemCell Technologies). CD3+ T cells were labeled with CellTrace™ Violet cell proliferation kit (CTV; ThermoFisher Scientific) and adjusted to 2×10^6 cells/mL. CTV-labeled T cells (1×10^5) were added to test article-treated HEK-293-WT or HEK-293-B7-H4 cells, stimulated with Immunocult™ Human CD3/CD28 T Cell Activator (StemCell Technologies), and incubated at 37° C. in 5% CO2. After 4 day of coculture of HEK-293-WT or HEK-293-B7-H4 with CTV-labeled T cells, T cell proliferation was assessed by the dilution of CTV-labeled T cells using flow cytometry. Cocultured cells (CTV-labeled T cells and HEK-293-WT/HEK-293-B7-H4 cells) from each group were transferred to a U-bottom 96-well plate, washed with PBS, stained with live/dead Fixable Aqua dead cell staining dye (ThermoFisher Scientific), and then additionally stained with fluorophore conjugated target specific or isotype control antibodies (FITC anti-human CD45, PE/Cy7 anti-human CD4, PE anti-human CD8). Cells were fixed and surface expression of the proteins of interest was determined by flow cytometry analysis on a MACSQuant flow cytometer. Data analysis was performed by FlowJo software using the following hierarchical flow: 1) single gate, 2) live cells, 3) CD45+ cells, and 4) diluted CTV (compared to unstimulated T cells). Percentage of proliferating CD4+ or CD8+ T cell were calculated using CD4+ combined with diluted CTV and CD8+ combined with diluted CTV, respectively. Data represent the mean (±standard deviation) of triplicate wells for each test article. Table 6 gives the population (%) of live cells, CD45+, proliferating CD4+ T cells, and proliferating CD8+ T cells for each condition.

Experiment [5] has as its target T1, human B7-H4 (Homo sapiens, UniProt Q7Z7D3).
T1 construct: purchased R&D Systems 6576-B7-050
T1 sequence (Q7Z7D3 25-282): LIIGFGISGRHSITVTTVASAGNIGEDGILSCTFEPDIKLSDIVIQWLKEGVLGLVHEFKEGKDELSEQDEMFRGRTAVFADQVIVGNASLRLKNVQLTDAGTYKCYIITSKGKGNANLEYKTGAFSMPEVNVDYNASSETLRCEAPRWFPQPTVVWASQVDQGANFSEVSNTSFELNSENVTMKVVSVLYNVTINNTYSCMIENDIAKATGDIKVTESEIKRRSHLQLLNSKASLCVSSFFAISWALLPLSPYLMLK
Kind of experiment: ELISA binding of XMT-1603 and XMT-1604 cytotoxic drug conjugates to human B7-H4 protein (Example 29). Conditions: Table 8. For orientation: ELISA stands for enzyme-linked immunosorbent assay.
Protocol: (§4) Recombinant human B7-H4 protein (R&D Systems #6576-B7-050) was coated onto the surface of each well of a 96-well plate by incubation with the peptide (1 μg/mL in PBS), overnight at 4° C. The wells were then blocked by incubation with BSA (5% in PBS, containing 0.1% Tween 20 (PBST)) for 1 hour at room temperature. […] The unbound test article was removed by washing with PBST (3×). A secondary anti-human IgG conjugated to HRP (0.16 μg/mL in PBST) was incubated in each well for 1 hour. The unbound secondary antibody was removed by washing with PBST (3×). The HRP substrate, TMB, was added to each well and incubated until a blue color was visible. The reaction was quenched by the addition of sulfuric acid (0.2 N, 100 μL). […] The values were plotted using GraphPad Prism software. EC50 values were determined by four-parameter curve fitting.

Another experiment deals with T2, rat B7-H4 (Rattus norvegicus, UniProt Q501W4).
T2 construct: purchased R&D Systems 10085-B7
T2 sequence (Q501W4 25-257): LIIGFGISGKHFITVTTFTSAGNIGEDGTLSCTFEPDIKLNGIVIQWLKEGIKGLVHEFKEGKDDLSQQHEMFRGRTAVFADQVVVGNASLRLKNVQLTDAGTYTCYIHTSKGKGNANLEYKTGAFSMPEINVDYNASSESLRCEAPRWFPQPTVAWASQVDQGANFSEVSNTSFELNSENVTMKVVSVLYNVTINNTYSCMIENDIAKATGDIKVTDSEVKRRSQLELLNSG
The experiment is described as follows: ELISA binding to rat B7-H4 (Example 30). Conditions: mean of two studies.

The target in another experiment is monkey B7-H4. The experiment is described as follows: ELISA binding to monkey B7-H4 (Example 30). Conditions: mean of two studies.
In another experiment the target is T3, mouse B7-H4 (Mus musculus, UniProt Q7TSP5).
T3 construct: purchased Creative Biomart VTCN1-1519R
T3 sequence (Q7TSP5 25-257): T2 sequence (Q501W4 25-257) with H109R, E228Q
Kind of experiment: ELISA binding to mouse B7-H4 (Example 30). Conditions: mean of two studies.

The subject of experiment [6] is HEK-293-WT cells cocultured with CTV-labeled CD3+ T cells. The experiment is described as follows: T-cell suppression coculture assay with HEK-293-WT cells (Example 27). Format: cell-based, human. Conditions: HEK-293-WT coculture, antibody 50 nM, 4 day. The procedure:
as §1

Experiment [7] concerns the target T1, human B7-H4. Kind of experiment: ELISA binding of STING agonist conjugates to recombinant human B7-H4 protein (Example 34). Conditions: Table 13.
Protocol: as §4
Experiment [8] relates to HEK-293 cells stably transfected with human B7-H4. The experiment is described as follows: Cell surface binding by FACS, HEK-293-B7-H4 cells (Example 32). Conditions: mean of two replicate experiments.
Protocol: as §2, §3
Experiment [9] deals with untransfected HEK-293 cells. The experiment is described as follows: Cell surface binding by FACS, untransfected HEK-293 cells (Example 32). Conditions: mean of two replicate experiments.
Protocol: as §2, §3
Experiment [10] has as its target T1, human B7-H4. The experiment is described as follows: ELISA binding to human B7-H4 (Example 30). Conditions: mean of two studies.
Protocol: as §4
(§5) Proteins used in these studies were: human B7-H4 (R&D Systems; 6576-B7-050), monkey B7-H4 (Creative Biomart; VTCN1-1519R), rat (R&D Systems 10085-B7), and mouse (Creative Biomart; VTCN1-1519R).
Experiment [11] addresses T1, human B7-H4. Kind of experiment: ELISA binding of variant B7-H4 cytotoxic drug conjugates to B7-H4 protein (Example 28). Conditions: Table 7.
Protocol: as §4

Changes are numbered by the printed parent chain. Values joined by “and” are separate entries in the source; they are usually repeats but may differ in a detail not shown here. Identical values can stand only once.

Protocol for monkey B7-H4: as §4, §5
Protocol for mouse B7-H4: as §4, §5
Protocol for rat B7-H4: as §4, §5

Consider `Cc1ccc2c(=O)c3cccc(CC(=O)O)c3oc2c1C` [STING agonist], for which, in [1], the EC50 is over 0.1 µM.

In the case of Palivizumab, the EC50 was over 0.2 µM with MX-1 cells [2]; over 0.1 µM in the experiment on MX-1 cells [3]; over 0.1 µM in the experiment with human B7-H4 [5]; over 0.1 µM with rat B7-H4; over 0.1 µM on monkey B7-H4; over 0.1 µM in the experiment with mouse B7-H4. Also, the EC50 (in the experiment with human B7-H4 [7]; in [8]; in experiment [9]; with human B7-H4 [10]; with human B7-H4 [11]) was over 0.1 µM in each case. Besides, the “% Population CD45+ (gated on live cells)” value in [4] was 48.3 ± 4.1% and 50.1 ± 3.7%; in experiment [6] (mean ± SD, two lines of values), 69.0 ± 5.1% and 43.0 ± 11.0%. Besides, the “% Population Live cells (gated on single)” value is 80.1 ± 2.0% and 95.5 ± 2.8% in [4]; 78.2 ± 0.4% and 85.6 ± 11.2% in [6] (mean ± SD of triplicate wells, two unexplained lines of values per population). For the same molecule, the “% Population Proliferating CD8+ (gated on single/live cells/CD45+)” value in experiment [4] is 3.4 ± 0.5% and 1.1 ± 0.6%; in experiment [6] (mean ± SD, two lines of values) it was 9.5 ± 1.6% and 3.5 ± 0.8%. Further, in [6] (mean ± SD, two lines of values), the “% Population Proliferating CD4+ (gated on single/live cells/CD45+)” value is 32.9 ± 2.6% and 22.4 ± 2.3%.
